Data: patent US11267826B2, “Penicillin-binding protein inhibitors” (priority 2017, dated 2022)

Legend:
[1] = test system: engineered strains of Escherichia coli harboring select single β-lactamases; experiment: MIC across the panel of engineered E. coli strains harboring select single β-lactamases; format: cell-based; conditions: strains expressing β-lactamases compared with control strain, result in words
Procedure: To determine if test compounds were affected by various known β-lactamases, the inhibition of the growth of engineered strains of Escherichia coli harboring select single β-lactamases were tested. These strains were constructed by cloning the gene encoding the particular β-lactamase into the NdeI and BamHI restriction endonuclease sites of plasmid pLBII, placing the gene(s) under the control of the Lac promoter.

[2] = test system: E. coli DH5a harboring TEM-24; experiment: Broth microdilution MIC, engineered E. coli expressing TEM-24; format: cell-based; conditions: Escherichia coli, read-out: MIC, β-lactamase TEM
Procedure: (§1) To determine the ability of test compounds to potentiate the inhibition of the growth of bacterial strains, classic cell based broth microdilution MIC assays were employed. MIC assays are performed according to CLSI methods except where otherwise noted (CLSI, 2011 and CLSI, 2009). The reference strain S. aureus ATCC 29213 and the hyper-permeable E. coli 901C were used to determine the ability of the PBP compounds to inhibit bacterial growth. Briefly, cryo-preserved bacterial cultures of clinical strains are streaked for isolation on appropriate agar medium, in this case Mueller Hinton II agar. Following incubation to allow formation of colonies these plates are sealed with parafilm and stored refrigerated for up to two weeks. For preparation of assay inocula and to ensure low variability, at least 5 colonies are picked from the agar plates with an inoculating loop and aseptically transferred to a culture tube containing 3 mL of Mueller-Hinton Broth (supplemented with divalent cations to required levels based on Manufacturers' certification). The broth culture is grown for 3-5 hours at 37° C. with shaking at 200 rpm. Meanwhile, 2-fold serial dilutions of test compounds are conducted in a 96 well plate with a final volume of 75 μL per well at 2-fold the final desired concentration. After the dilution plates are set up the growing cultures are then diluted in a cuvette containing MH II broth and the optical density is measured at 600 nm. Inocula are diluted such that 75 μL of this culture in Mueller-Hinton Broth results in a starting bacterial concentration of 5×10^5 CFU/mL when added to the dilution plates. The plates are incubated 16-20 hours at 37° C. The MIC is read visually as the lowest concentration well with no bacterial growth.
(§2) To determine if test compounds were affected by various known β-lactamases, the inhibition of the growth of engineered strains of Escherichia coli harboring select single β-lactamases were tested. […]

[3] = test system: E. coli DH5a harboring OXA-48; experiment: Broth microdilution MIC, engineered E. coli expressing OXA-48; format: cell-based; conditions: Escherichia coli, read-out: MIC, β-lactamase OXA
Procedure: as §1, §2

E. coli PBP3 = target: T1, E. coli PBP3 (Escherichia coli, UniProt P0AD68); experiment: Bocillin FL competition binding assay, PBP3; design: species or system Escherichia coli K12; conditions: 15 min pre-incubation
T1 construct: 100 μg's of total membrane protein extracts containing PBPs; endogenous in cells; host or cells: Escherichia coli K12, membrane protein fraction
Outline: (§3)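 E. coli K12 membrane extracts (100 µg protein) pre-incubated 15 min with compound (0.005–2,480 µg/mL) in pH 7 phosphate/350 mM NaCl, then labelled with Bocillin FL 30 min at 35°C; SDS-PAGE fluorescence (ex 450/em 520 nm), μg/mL reported. PBP1a/1b unresolved, reported combined.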

S. aureus ATCC 29213 = experiment: Broth microdilution MIC assay, S. aureus; format: cell-based; conditions: Staphylococcus aureus, ATCC29213; broth microdilution, 16-20 hours at 37° C.; read-out: S. aureus 29213 MIC
Outline: (§4)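 Visual no-growth endpoint defines the MIC. Inoculum of 5×10^5 CFU/mL in divalent-cation-supplemented Mueller-Hinton broth was exposed to 2-fold dilution series of compound, then incubated 16-20 hours at 37° C per CLSI.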

[4] = test system: E. coli DH5a with pLBII plasmid with no β-lactamase gene; experiment: Broth microdilution MIC, engineered E. coli control strain (pLBII plasmid, no β-lactamase gene); format: cell-based; conditions: Escherichia coli, read-out: MIC, β-lactamase None
Procedure: as §1, §2

[5] = test system: E. coli DH5a harboring NDM-1; experiment: Broth microdilution MIC, engineered E. coli expressing NDM-1; format: cell-based; conditions: Escherichia coli, read-out: MIC, β-lactamase NDM
Procedure: as §1, §2

[6] = test system: E. coli DH5a harboring VIM-2; experiment: Broth microdilution MIC, engineered E. coli expressing VIM-2; format: cell-based; conditions: Escherichia coli, read-out: MIC, β-lactamase VIM
Procedure: as §1, §2

[7] = test system: E. coli DH5a harboring CTX-M15; experiment: Broth microdilution MIC, engineered E. coli expressing CTX-M15; format: cell-based; conditions: Escherichia coli, read-out: MIC, β-lactamase CTXM
Procedure: as §1, §2

[8] = test system: E. coli DH5a harboring KPC-2; experiment: microbe, parasite or virus in culture; format: cell-based; conditions: Escherichia coli, read-out: MIC, β-lactamase KPC
Procedure: To determine the ability of test compounds to potentiate the inhibition of the growth of bacterial strains, classic cell based broth microdilution MIC assays were employed. MIC assays are performed according to CLSI methods except where otherwise noted (CLSI, 2011 and CLSI, 2009). The reference strain S. aureus ATCC 29213 and the hyper-permeable E. coli 901C were used to determine the ability of the PBP compounds to inhibit bacterial growth. Briefly, cryo-preserved bacterial cultures of clinical strains are streaked for isolation on appropriate agar medium, in this case Mueller Hinton II agar. Following incubation to allow formation of colonies these plates are sealed with parafilm and stored refrigerated for up to two weeks. For preparation of assay inocula and to ensure low variability, at least 5 colonies are picked from the agar plates with an inoculating loop and aseptically transferred to a culture tube containing 3 mL of Mueller-Hinton Broth (supplemented with divalent cations to required levels based on Manufacturers' certification). The broth culture is grown for 3-5 hours at 37° C. with shaking at 200 rpm. […] After the dilution plates are set up the growing cultures are then diluted in a cuvette containing MH II broth and the optical density is measured at 600 nm. […] The MIC is read visually as the lowest concentration well with no bacterial growth. […]

[9] = test system: hyper-permeable E. coli 901C; experiment: Broth microdilution MIC assay, hyper-permeable E. coli; format: cell-based; conditions: Escherichia coli, read-out: E. coli 901C MIC
Outline: as §4

[10] = test system: E. coli DH5a harboring IMP-18; experiment: Broth microdilution MIC, engineered E. coli expressing IMP-18; format: cell-based; conditions: Escherichia coli, read-out: MIC, β-lactamase IMP
Procedure: as §1, §2

E. coli K12 PBP1a/b = experiment: Bocillin FL competition binding assay, PBP1a/1b combined; design: species or system Escherichia coli K12; conditions: 15 min pre-incubation, PBP 1a/1b combined
Outline: as §3

E. coli PBP2 = target: T2, E. coli PBP2 (Escherichia coli, UniProt P0AD65); experiment: Bocillin FL competition binding assay, PBP2; design: species or system Escherichia coli K12; conditions: 15 min pre-incubation
T2 construct: 100 μg's of total membrane protein extracts containing PBPs; endogenous in cells; host or cells: Escherichia coli K12, membrane protein fraction
Outline: as §3

[11] = test system: E. coli DH5a harboring SHV-5; experiment: Broth microdilution MIC, engineered E. coli expressing SHV-5; format: cell-based; conditions: Escherichia coli, read-out: MIC, β-lactamase SHV
Procedure: as §1, §2

E. coli K12 PBP1b = target: T3, E. coli K12 PBP1b (Escherichia coli, UniProt P02919); experiment: Competition binding assay using Bodipy-FL boronic acid probe (Example 125); conditions: Bodipy-FL boronic acid probe (Example 125) 30 μM, 10 minutes pre-incubation, 10 minutes reaction
T3 construct: endogenous in cells; host or cells: Escherichia coli K12, membrane protein fraction
Procedure: Penicillin binding proteins were isolated from Escherichia coli K12 by growth of Escherichia coli K12 from a single colony in 4 L of Luria-Bertani (LB) broth at 35° C. and 250 rpm to an OD600 nm of 0.5. The cells were harvested by centrifugation at 7,000×g for 10 min. at 4° C. Cells were resuspended and washed in 50 mM potassium phosphate pH 7.5. The cells were re-suspended in sonication buffer [50 mM Tris-HCl pH 7.5, 1 mM MgCl2, 1 mM beta-mercaptoethanol, and 5 μg/mL DNAse I] and sonicated by 4 passes of 30 seconds at 45 W on ice. The sample was clarified by centrifugation at 3,000×g to remove cell debris and unbroken cells and supernatant containing the membrane proteins was retained. The membrane proteins including the PBPs were further purified from soluble constituents by an ultracentrifugation step at 100,000×g for 30 min. at 4° C. The membrane proteins are washed twice with 10 mM sodium phosphate pH 7, resuspended in a volume of 5 mL, quantitated by BCA assay, adjusted to […] and frozen at −80° C. until use.
The adapted Bocillin FL competition binding method described herein incorporates a 15 min. pre-incubation of test compound with isolated PBPs to attempt to balance the difference in mechanism of inhibition between beta-lactams (largely irreversible covalent bond to active site Serine) and the boron-containing PBP inhibitor test compounds (reversible covalent bond to active site Serine). Briefly, 50 μL reactions consisted of 100 μg's of total membrane protein extracts containing PBPs incubated with a dilution series of test compound ranging from 0.005 μg/mL to 2,480 μg/mL in 10 mM sodium phosphate pH7 containing 350 mM NaCl. Thirty minute reactions at 35° C. were initiated by addition of […] Bocillin FL, quenched by addition of SDS-PAGE loading buffer containing sodium dodecyl sulfate (SDS) and heated for 15 minutes at 95° C. to denature proteins in preparation for SDS-polyacrylamide gel electrophoresis. The Bocillin FL labeled PBPs are then separated by SDS-PAGE in Novex NuPage 10% Bis-Tris pre-cast gels (Invitrogen). The SDS-PAGE gel, post-electrophoresis, is then washed in water to remove excess SDS for 10 minutes at room temperature and placed on the scanning bed of a GE Healthcare/Amersham Biosciences Storm 860 fluorescence scanner. The excitation wavelength is in the blue spectrum at 450 nm and the emission at 520 nm is captured by the instrument. Effective PBP inhibitors are detected by a reduction in Bocillin FL labeling of the particular PBP over the dose range of test compound in a dose-responsive manner. High molecular weight PBP 1a/1b are not resolved by these gels, thus we report HMW PBP binding results in μg/mL for PBPs 1a/1b combined as well as for PBP2 and PBP3.
To determine the ability of boronic acid-based test PBP inhibitors to bind Penicillin Binding Proteins (PBPs), a competition binding assay using a Bodipy-FL-labeled boronic acid PBP inhibitor (Example 125) was adapted from the classical method used to assess PBP potency of beta-lactams using Bocillin-FL (fluorescently-labeled penicillin V). The method is identical to that described in Example I for the Bocillin-FL competition binding assay with the following exceptions, the Bodipy-FL boronic acid probe (Example 125) is used at a final concentration of 30 μM, pre-incubation time of test compound with PBP enzymes is 10 minutes and reaction time is set for 10 minutes and reactions are prepared for SDS-PAGE analysis by simply adding SDS-containing loading buffer. Representative results are shown in Table 5, where A represents a potency of >1000 μg/mL, B represents a potency between 64 and 1000 μg/mL inclusive, and C represents a potency of <64 μg/mL. NT=Not Tested.

T1 sequence (P0AD68 1-577): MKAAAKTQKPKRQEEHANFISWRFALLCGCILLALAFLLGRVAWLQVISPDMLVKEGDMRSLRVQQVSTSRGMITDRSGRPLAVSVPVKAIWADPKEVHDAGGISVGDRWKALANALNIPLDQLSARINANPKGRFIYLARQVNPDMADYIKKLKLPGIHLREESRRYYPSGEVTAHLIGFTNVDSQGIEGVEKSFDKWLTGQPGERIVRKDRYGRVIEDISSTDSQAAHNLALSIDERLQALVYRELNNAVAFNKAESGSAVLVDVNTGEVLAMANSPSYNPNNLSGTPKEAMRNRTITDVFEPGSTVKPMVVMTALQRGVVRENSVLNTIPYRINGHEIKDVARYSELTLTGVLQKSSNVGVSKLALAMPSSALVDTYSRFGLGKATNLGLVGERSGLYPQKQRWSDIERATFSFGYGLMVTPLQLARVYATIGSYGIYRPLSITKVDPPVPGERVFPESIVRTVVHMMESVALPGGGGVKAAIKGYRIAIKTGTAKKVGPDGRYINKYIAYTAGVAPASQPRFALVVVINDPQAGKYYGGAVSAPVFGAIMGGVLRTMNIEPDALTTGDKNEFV
T2 sequence (P0AD65 whole entry): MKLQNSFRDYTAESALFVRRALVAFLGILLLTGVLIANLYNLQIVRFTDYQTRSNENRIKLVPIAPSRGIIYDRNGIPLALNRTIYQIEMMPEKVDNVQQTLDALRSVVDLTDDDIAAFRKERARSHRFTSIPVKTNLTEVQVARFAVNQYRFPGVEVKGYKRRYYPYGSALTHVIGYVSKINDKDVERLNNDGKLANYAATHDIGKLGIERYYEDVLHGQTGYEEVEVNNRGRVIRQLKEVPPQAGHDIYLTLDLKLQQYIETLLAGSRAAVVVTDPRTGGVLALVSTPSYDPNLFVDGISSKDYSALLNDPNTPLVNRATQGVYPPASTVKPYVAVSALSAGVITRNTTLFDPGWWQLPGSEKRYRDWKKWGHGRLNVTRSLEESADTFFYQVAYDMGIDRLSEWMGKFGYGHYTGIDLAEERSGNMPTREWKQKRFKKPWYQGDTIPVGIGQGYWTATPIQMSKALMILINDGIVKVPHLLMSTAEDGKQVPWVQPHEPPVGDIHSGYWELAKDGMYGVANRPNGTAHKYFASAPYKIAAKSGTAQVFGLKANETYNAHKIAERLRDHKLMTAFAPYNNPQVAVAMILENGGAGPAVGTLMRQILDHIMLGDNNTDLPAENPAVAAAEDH
T3 sequence (P02919 whole entry): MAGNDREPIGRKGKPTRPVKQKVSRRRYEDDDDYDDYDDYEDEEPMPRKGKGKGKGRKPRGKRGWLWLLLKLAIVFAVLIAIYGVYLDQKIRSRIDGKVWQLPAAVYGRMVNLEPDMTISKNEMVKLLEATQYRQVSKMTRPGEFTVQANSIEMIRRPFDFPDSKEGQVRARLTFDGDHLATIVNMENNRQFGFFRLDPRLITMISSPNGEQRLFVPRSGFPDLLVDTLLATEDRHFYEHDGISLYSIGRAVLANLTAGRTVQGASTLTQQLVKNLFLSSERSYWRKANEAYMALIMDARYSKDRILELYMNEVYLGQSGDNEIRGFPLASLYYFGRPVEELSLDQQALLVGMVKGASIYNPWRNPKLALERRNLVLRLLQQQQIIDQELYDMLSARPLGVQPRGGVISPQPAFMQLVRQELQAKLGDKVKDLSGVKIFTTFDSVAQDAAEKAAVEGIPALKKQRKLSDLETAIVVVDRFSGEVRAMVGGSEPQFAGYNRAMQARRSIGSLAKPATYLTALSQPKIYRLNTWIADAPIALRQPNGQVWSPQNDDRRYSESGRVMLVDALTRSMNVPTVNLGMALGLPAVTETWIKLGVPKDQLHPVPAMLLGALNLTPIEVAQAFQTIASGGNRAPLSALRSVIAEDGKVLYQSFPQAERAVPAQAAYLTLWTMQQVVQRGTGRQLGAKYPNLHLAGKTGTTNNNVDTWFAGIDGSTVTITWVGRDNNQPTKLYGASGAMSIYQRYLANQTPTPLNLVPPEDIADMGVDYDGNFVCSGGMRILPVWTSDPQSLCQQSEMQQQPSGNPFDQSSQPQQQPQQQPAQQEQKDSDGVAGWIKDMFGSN

Row | SMILES | Effect of expressed β-lactamase on MIC [1] | MIC [2] [µg/mL] | MIC [3] [µg/mL] | E. coli PBP3 Potency (E. coli PBP3) | MIC (S. aureus ATCC 29213) [µg/mL] | MIC [4] [µg/mL] | MIC [5] [µg/mL] | MIC [6] [µg/mL] | MIC [7] [µg/mL] | MIC [8] [µg/mL] | MIC [9] [µg/mL] | MIC [10] [µg/mL] | E. coli K12 PBP1a/b Potency (E. coli K12 PBP1a/b) | E. coli PBP2 Potency (E. coli PBP2) | MIC [11] [µg/mL] | E. coli K12 PBP1b Potency (E. coli K12 PBP1b)
1 | CO/N=C(\C(=O)N[C@H]1Cc2cccc(C(=O)O)c2OB1O)c1csc(N)n1 [Example 1, (R,Z)-3-(2-(2-aminothiazol-4-yl)-2-(methoxyimino)acetamido)-2-hydroxy-3,4-dihydro-2H-benzo[e][1,2]oxaborinine-8-carboxylic Acid] | the same MIC values in strains regardless of the β-lactamase expressed | 8 | 8 | C (C represents a potency of <64 μg/mL) | 64 to 128 | 8 | 8 | 8 | 8 | 4 | < 64 | 8 | C (C represents a potency of <64 μg/mL) | A (A represents a potency of >1000 μg/mL) | 8 | –
2 | Nc1nc(/C(=N/OCC2CCNCC2)C(=O)N[C@H]2Cc3cccc(C(=O)O)c3OB2O)cs1 [Example 52, (R,Z)-3-(2-(2-aminothiazol-4-yl)-2-((piperidin-4-ylmethoxy)imino)acetamido)-2-hydroxy-3,4-dihydro-2H-benzo[e][1,2]oxaborinine-8-carboxylic Acid] | – | – | – | A (A represents a potency of >1000 μg/mL) | > 128 | – | – | – | – | – | < 64 | – | A (A represents a potency of >1000 μg/mL) | A (A represents a potency of >1000 μg/mL) | – | B (B represents a potency between 64 and 1000 μg/mL inclusive)
3 | Nc1nc(/C(=N/OCC(=O)NC2CCNCC2)C(=O)N[C@H]2Cc3cccc(C(=O)O)c3OB2O)cs1 [Example 59, (R,Z)-3-(2-(2-aminothiazol-4-yl)-2-((2-oxo-2-(piperidin-4-ylamino)ethoxy)imino)acetamido)-2-hydroxy-3,4-dihydro-2H-benzo[e][1,2]oxaborinine-8-carboxylic Acid] | – | – | – | C (C represents a potency of <64 μg/mL) | > 128 | – | – | – | – | – | < 64 | – | B (B represents a potency between 64 and 1000 μg/mL inclusive) | C (C represents a potency of <64 μg/mL) | – | B (B represents a potency between 64 and 1000 μg/mL inclusive)
